From patent publication US10344026B2, “Compositions and methods of targeting mutant K-ras” (NANTBIO, INC., priority 2017, dated 2019)

How the values were obtained:
Type in all cases: cell-based
[1] = test system: phospho-ERK in HCC827 (Wild-type); test: In-Cell Western phospho-ERK, HCC827; details: Homo sapiens, 1 h; HCC827, one hour treatment; read-out: In-Cell Western HCC827 (Wild-type) Erk (P)
How it was run: (§1)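 EC50 values come from immunofluorescence quantitation of phosphorylated ERK or Akt in fixed cells exposed to compound for one hour at 0.5% DMSO. Maximal inhibition is defined by 1 uM BEZ235 for Akt and 1 uM MEK Inhibitor II for ERK.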

[2] = test system: U87-MG (K-Ras wild type cell line); test: Viability assay (CellTiterBlue, 72 hr) U87-MG; details: Homo sapiens, U-87 MG, GI50, CellTiterBlue, U87-MG K-Ras wild-type
How it was run: (§2)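 Each line was plated at 1000 cells per well and incubated for 72 hr with compound after an 18 hr settling period. CellTiterBlue fluorescence measured the result, and GI50 was fitted relative to DMSO and tamoxifen controls.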

[3] = test system: HCT116-G31D; test: Viability assay (CellTiterBlue, 72 hr) HCT116; details: Homo sapiens, HCT-116, GI50, CellTiterBlue, HCT116 K-Ras G13D, read-out: 72 hr Cell Viability HCT116 (G13D)
How it was run: as §2

[4] = test system: phospho-Akt in Panc10.05 (G12D); test: In-Cell Western phospho-Akt, Panc10.05; details: Homo sapiens, Panc1005, 1 h; Panc10.05, one hour treatment; read-out: In-Cell Western Panc10.05 (G12D) Akt (P)
How it was run: as §1

[5] = test system: phospho-ERK in Panc1 (G12D); test: In-Cell Western phospho-ERK, Panc1; details: Homo sapiens, PANC-1, 1 h; Panc1, one hour treatment; read-out: In-Cell Western Panc1 (G12D) Erk (P)
How it was run: as §1

[6] = test system: phospho-ERK in Panc10.05 (G12D); test: In-Cell Western phospho-ERK, Panc10.05; details: Homo sapiens, Panc1005, 1 h; Panc10.05, one hour treatment; read-out: In-Cell Western Panc10.05 (G12D) Erk (P)
How it was run: as §1

[7] = test system: phospho-Akt in Panc1 (G12D); test: In-Cell Western phospho-Akt, Panc1; details: Homo sapiens, PANC-1, 1 h; Panc1, one hour treatment; read-out: In-Cell Western Panc1 (G12D) Akt (P)
How it was run: as §1

[8] = test system: A375 (K-Ras wild type cell line); test: Viability assay (CellTiterBlue, 72 hr) A375; details: Homo sapiens, A-375, GI50, CellTiterBlue
How it was run: as §2

[9] = test system: Panc10.05-G12D; test: Viability assay (CellTiterBlue, 72 hr) Panc10.05; details: Homo sapiens, Panc1005, GI50, CellTiterBlue, Panc10.05 K-Ras G12D, read-out: 72 hr Cell Viability Panc10.05 (G12D)
How it was run: as §2

[10] = biological target: T1, K-Ras G12V (Homo sapiens, UniProt P01116, G12V); test: G-LISA Ras activation, 293H cells transfected with G12V mutant; details: compound 1 hour
T1 construct: expressed in transfected cells; host or cells: 293H cells
T1 sequence (P01116 whole entry G12V): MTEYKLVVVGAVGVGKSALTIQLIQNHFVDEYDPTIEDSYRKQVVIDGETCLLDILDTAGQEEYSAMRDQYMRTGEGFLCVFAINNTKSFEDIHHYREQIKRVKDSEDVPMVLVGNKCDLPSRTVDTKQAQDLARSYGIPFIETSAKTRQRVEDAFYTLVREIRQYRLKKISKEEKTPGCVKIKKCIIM
Procedure: 293H cells were seeded in 6-wells at 0.6×10^6 cells per well and transfected next day with 5 μg of Ras wild-type, or G12C, G12D or G12V mutant DNA plasmid vector using transfection reagent Lipofectamine 3000. Next day cells were treated with 3.125-25 μM of Ras compounds for 1 hour. Wild-type transfected cells were subsequently treated with 100 ng/ml EGF for 2 minutes. Cells were washed once in ice-cold PBS, lysed in complete lysis buffer on ice, and processed by G-LISA according to Cytoskeleton protocol.

[11] = test system: Ishikawa (K-Ras wild type cell line); test: Viability assay (CellTiterBlue, 72 hr) Ishikawa; details: Homo sapiens, GI50, CellTiterBlue, Ishikawa K-Ras wild-type
How it was run: as §2

[12] = biological target: T2, wild type K-Ras (Homo sapiens, UniProt P01116); test: G-LISA Ras activation, 293H cells transfected with Ras wild-type, EGF stimulated; details: compound 1 hour, then 100 ng/ml EGF 2 minutes
T2 construct: expressed in transfected cells; host or cells: 293H cells
T2 sequence (P01116 whole entry): as the sequence (P01116 whole entry G12V) above, with V12G counted along it
How it was run: (§3)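 Cells: 293H, Ras plasmid transfection (5 μg). Cpd 3.125-25 μM, 1 h; WT cells + EGF 100 ng/ml, 2 min. Lysed on ice; active Ras by G-LISA.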

[13] = test system: phospho-Akt in A375 (Wild-type); test: In-Cell Western phospho-Akt, A375; details: Homo sapiens, A-375, 1 h; A375, one hour treatment; read-out: In-Cell Western A375 (Wild-type) Akt (P)
How it was run: as §1

[14] = test system: HCC827 (K-Ras wild type cell line); test: Viability assay (CellTiterBlue, 72 hr) HCC827; details: Homo sapiens, GI50, CellTiterBlue, HCC827 K-Ras wild-type
How it was run: as §2

[15] = biological target: T3, K-Ras G12D (Homo sapiens, UniProt P01116, G12D); test: G-LISA Ras activation, 293H cells transfected with G12D mutant; details: compound 1 hour
T3 construct: expressed in transfected cells; host or cells: 293H cells
T3 sequence (P01116 whole entry G12D): as the sequence (P01116 whole entry G12V) above, with V12D counted along it
How it was run: as §3

[16] = test system: Panc1-G12D; test: Viability assay (CellTiterBlue, 72 hr) Panc1; details: Homo sapiens, PANC-1, GI50, CellTiterBlue, Panc1 K-Ras G12D, read-out: 72 hr Cell Viability Panc1 (G12D)
How it was run: as §2

[17] = test system: phospho-ERK in A375 (Wild-type); test: In-Cell Western phospho-ERK, A375; details: Homo sapiens, A-375, 1 h; A375, one hour treatment; read-out: In-Cell Western A375 (Wild-type) Erk (P)
How it was run: as §1

[18] = test system: phospho-Akt in HCC827 (Wild-type); test: In-Cell Western phospho-Akt, HCC827; details: Homo sapiens, 1 h; HCC827, one hour treatment; read-out: In-Cell Western HCC827 (Wild-type) Akt (P)
How it was run: as §1

Row | Structure (SMILES) | EC50 [1] [µM] | IC50 [2] [µM] | IC50 [3] [µM] | EC50 [4] [µM] | EC50 [5] [µM] | EC50 [6] [µM] | EC50 [7] [µM] | IC50 [8] [µM] | IC50 [9] [µM] | IC50 [10] [µM] | IC50 [11] [µM] | IC50 [12] [µM] | EC50 [13] [µM] | IC50 [14] [µM] | IC50 [15] [µM] | IC50 [16] [µM] | EC50 [17] [µM] | EC50 [18] [µM]
1 | Cc1nc(C(C)C)oc1C(=O)Nc1nc(-c2ccc3c(c2)CCC(=O)N3)cs1 [Compound 7, 2-isopropyl-4-methyl-N-(4-(2-oxo-1,2,3,4-tetrahydroquinolin-6-yl)thiazol-2-yl)oxazole-5-carboxamide] | > 25 | > 25 | > 25 | 8 | > 25 | 4 | > 25 | > 25 | 2 | > 25 | > 25 | 11.7 | > 25 | > 25 | 4.8 | 8 | > 25 | 
2 | Cc1nc(C2CCC2)oc1C(=O)Nc1nc(-c2ccc3c(c2)CCC(=O)N3)cs1 [Compound 8, 2-cyclobutyl-4-methyl-N-(4-(2-oxo-1,2,3,4-tetrahydroquinolin-6-yl)thiazol-2-yl)oxazole-5-carboxamide] | > 25 |  | > 25 | 6 | > 25 | 2 | > 25 |  | 1.3 | > 25 | > 25 | 15.5 | > 25 | > 25 | 5.9 | 17 | > 25 | 
3 | CCc1nc(C)c(C(=O)Nc2nc(-c3ccc4c(c3)CCC(=O)N4Cc3cccnc3)cs2)o1 [Compound 64, 2-ethyl-4-methyl-N-(4-(2-oxo-1-(pyridin-3-ylmethyl)-1,2,3,4-tetrahydroquinolin-6-yl)thiazol-2-yl)oxazole-5-carboxamide] | 7 | 2 | 5 | > 25 | 5 | 9 | 6 |  | 2 | 9.6 | 3.5 | > 25 |  | 10 | 3 | 5 |  | 15
4 | Cc1nc(C)c(C(=O)Nc2nc(-c3ccc4c(c3)CCC(=O)N4CC3CCCOC3)cs2)o1 (stereo not shown) [Compound 66, 2,4-dimethyl-N-(4-(2-oxo-1-((tetrahydro-2H-pyran-3-yl)methyl)-1,2,3,4-tetrahydroquinolin-6-yl)thiazol-2-yl)oxazole-5-carboxamide] | 4 |  | 3 | 18 | 3 | 3 | 2 |  | 2 | 6.5 | 2 | 11.1 |  | 4 | 4.5 | 6 |  | 15
5 | CCc1nc(C)c(C(=O)Nc2nc(-c3ccc4c(c3)CCC(=O)N4Cc3ccccn3)cs2)o1 [Compound 63, 2-ethyl-4-methyl-N-(4-(2-oxo-1-(pyridin-2-ylmethyl)-1,2,3,4-tetrahydroquinolin-6-yl)thiazol-2-yl)oxazole-5-carboxamide] | 6 | 1.5 | 4 | > 25 | 3 | 7 | 4 |  | 2 | 9.8 | 4 | > 25 |  | 5 | 5.6 | 5 |  | 10
6 | Cc1nc(C2CC2)oc1C(=O)Nc1nc(-c2ccc3c(c2)CCC(=O)N3Cc2ccccc2)cs1 [Compound 58, N-(4-(1-benzyl-2-oxo-1,2,3,4-tetrahydroquinolin-6-yl)thiazol-2-yl)-2-cyclopropyl-4-methyloxazole-5-carboxamide] |  | 4 | 4 | 3 |  |  | 6 |  | 3.4 | 21.6 | 2.3 | 20.4 |  |  | 5.2 | 1.7 |  | 
7 | Cc1nc(C2CC2)oc1C(=O)Nc1nc(-c2ccc3c(c2)CCC(=O)N3)cs1 [Compound 6, 2-cyclopropyl-4-methyl-N-(4-(2-oxo-1,2,3,4-tetrahydroquinolin-6-yl)thiazol-2-yl)oxazole-5-carboxamide] |  | 5 | > 25 | 3 | 4 | 2 |  |  | 3.6 | 19.4 | 10 | 10.6 |  |  | 7.3 | 2.4 |  | 
